# According to patent publication US20040023882A1, “PTH derivatives resistant to skin proteases” (priority 2002, published 2004):
# Tests used:
# [1] = in vivo; cited from earlier work
# [2] = format: in vitro ADME, hairless guinea pig
# Description: Aliquots (100 μg) of peptide were incubated at 37° C. with skin extract (1 mL) over the indicated periods of time. The remaining peptide was separated and quantified by HPLC. The data represent averages of duplicate experiments;
# The incubation of peptides (PTH(1-34), left panel and PTH(1-34) amide, right panel) with skin extracts, over the indicated times, was conducted as described in Example 2. Fractions containing the peaks were collected, lyophilized and the masses were determined by MALDI-TOF.
# Hairless guinea pig skin extracts (1 mL aliquots) were prepared from samples of plasma and skin extracts, respectively, and stored at about −20° C. Stock solutions of hPTH(1-34), hPTH(1-34)NH2, hPTH (1-34)NH-propyl, and hPTH (1-34)NH-phenylpropyl were prepared in HPLC-grade water to achieve a concentration of 10 mg of peptide/mL. Aliquots of skin extracts (1 ml) were incubated at 37° C. for 10 minutes prior to the addition of peptide (100 μg; 10 μL stock solution) or water (10 μL) (control). […]
# The lyophilized samples were resuspended in 200 μL of 0.1 N acetic acid and centrifuged at 13,000 g for 15 minutes at room temperature. […] Fractions containing the metabolites of PTH derivatives were collected, concentrated by lyophilization and their masses determined by MALDI-TOF MS (using Voyager-DE Perseptive Biosystems according to the manufacture's procedure).
Substance,potency in anabolic actions on the bone relative to PTH(1-34) [1],stimulation of resorption markers [1],site of degradation by skin proteases [2]
PTH (1-31),as potent as PTH(1-34),without stimulating resorption markers,–
hPTH(1-34) [PTH (1-34)],–,–,takes place at the carboxyterminal end
